Laboratory results published in patent publication US20070059785A1, “Biomarkers in cancer” (SMITHKLINE BEECHAM CORPORATION, priority 2003, published 2007).
Entries after “also recorded” stand apart in the source; their conditions may differ.

Legend:
[1] = system: AKT; test: Western blot of p-AKT in HN5 cells; format: cell-based, human; conditions: HN5, 5 μM, 24 h serum-free
Description: (§1) The erbB2 overexpressing human breast adenocarcinoma cell line, BT474, was obtained from the American Type Culture Collection (Rockville, M, USA). […] The EGFR overexpressing LICR-LON-HN5 head and neck carcinoma cell line, HN5, was kindly provided by Helmout Modjtahedi at the Institute of Cancer Research, Surrey, U.K.
(§2) For IP Western blots, equivalent amounts of protein were precleared with Protein G Plus/Protein A agarose overnight at 4° C. Precleared lysates were then incubated overnight at 4° C. with specific antibodies. Immune complexes were precipitated with Protein G Plus/Protein A agarose beads, washed in RIPA buffer and then boiled in sample loading buffer. Steady state levels of total Erk1/2 and activated Erk1/2 (p-Erk) as well as total AKT protein and activated AKT (p-AKT) protein were assessed by Western blot. […] Proteins were transferred to Immobilon-P or nitrocellulose membranes. Efficiency and equal loading of proteins was evaluated by Ponceau S staining. Membranes were blocked for 1 hr in TBS (25 mM Tris-HCl, pH 7.4, 150 mM NaCl, 2.7 mM KCl) containing 4% (w/v) lowfat milk or 3% BSA (w/v). Membranes were then probed with specific antibodies recognizing target proteins. Proteins were visualized with the SUPERSIGNAL® West Femto Maximum sensitivity substrate kit (Pierce).

[2] = system: Erk1/2; test: Western blot of p-Erk1/2 in BT474 cells; format: cell-based, human; conditions: for p-Erk1/2: BT474, exponentially growing, 72 h
Description: as §1, §2
BT474 is an erbB2 overexpressing breast carcinoma line that also expresses EGFR, albeit at lower levels. BT474 cells constitutively express activated erbB2 (p-Tyr/erbB2). […] Cell lysates were prepared and total Erk1/2 and activated Erk1/2 (p-Erk1/2) were assessed by Western blot.

[3] = system: TGFα; test: Clinical tumor biopsies, TGFα by IHC; conditions: patient 425, inflammatory breast cancer, 1200 mg/d ditosylate salt, day 21 (day 0: 32)
From the text: Erk1/2 (1:1200), erbB3 (1:10), heregulin (1:25), and TGFα (1:20) were also immunostained using the BenchMark™ with I-VIEW detection chemistry.
(§4) All subjects provided written informed consent.
“TGFα” refers to Transforming Growth Factor alpha as measured by immunohistochemistry and reported in OD;

[4] = system: Erk1/2; test: Western blot of activated Erk1/2 (p-Erk1/2) in S1 cells; format: cell-based, human; conditions: 72 h
From the text: Proteins were transferred to Immobilon-P or nitrocellulose membranes.
ErbB2 overexpression is associated with the activation of downstream pathways involved in the propagation of proliferative signals such as Erk1/2 MAP kinases (Janes et al., Oncogene, 9:3601(1994)). […].

[5] = system: pAKT; test: Clinical tumor biopsies, p-AKT by quantitative IHC
From the text: DAB (Dako) was used as the chromogen.
“pAKT” refers to phosphorylated AKT as measured by immunohistochemistry and reported in OD;

[6] = system: Erk1/2; test: Western blot of p-Erk1/2 in Hb4a cells; format: cell-based, human; conditions: 5 μM, 72 h, not reversed by EGF
Description: The EGFR overexpressing LICR-LON-HN5 head and neck carcinoma cell line, HN5, was kindly provided by Helmout Modjtahedi at the Institute of Cancer Research, Surrey, U.K.
as §2
Steady state levels of activated erbB2 and EGFR (p-Tyr/ErbB2 and p-Tyr/EGFR); total erbB2 and EGFR; activated Erk1/2 (p-Erk1/2) and total Erk1/2 were assessed by either IP Western or Western blot.

[7] = system: Erk1/2; test: BT474 tumor xenograft, p-Erk1/2 and total Erk1/2 by Western blot; format: in vivo, C.B-17 SCID mice
Description: (§3) The tumor implant was removed after the final treatment dose. Activated receptor (p-Tyr/ErbB-2) was assessed by IP Western blot and total ErbB-2 steady state protein (ErbB-2), total Erk1/2 and activated Erk1/2 (p-Erk1/2) were assessed by Western blot loading equal amounts of protein from tumor biopsies.
Cell extracts were prepared by homogenization as described for HN5 xenografts.
as §3, with “BT474” for “The”, “xenografts (subcutaneous) were established as described in Materials and Methods. […] Controls were treated with vehicle alone. […]” for “implant was removed after the final treatment dose.”

[8] = molecular target: erbB2 (Homo sapiens, UniProt P04626); test: Clinical tumor biopsies, total erbB2 by IHC
From the text: as §4
“erbB2” refers to total erbB2 as measured by immunohistochemistry and reported in OD;

[9] = system: AKT; conditions: S1 cells; not reversed by EGF; data of PCT/US03/12739; cited from earlier work

Chain of erbB2 (P04626 23-1255): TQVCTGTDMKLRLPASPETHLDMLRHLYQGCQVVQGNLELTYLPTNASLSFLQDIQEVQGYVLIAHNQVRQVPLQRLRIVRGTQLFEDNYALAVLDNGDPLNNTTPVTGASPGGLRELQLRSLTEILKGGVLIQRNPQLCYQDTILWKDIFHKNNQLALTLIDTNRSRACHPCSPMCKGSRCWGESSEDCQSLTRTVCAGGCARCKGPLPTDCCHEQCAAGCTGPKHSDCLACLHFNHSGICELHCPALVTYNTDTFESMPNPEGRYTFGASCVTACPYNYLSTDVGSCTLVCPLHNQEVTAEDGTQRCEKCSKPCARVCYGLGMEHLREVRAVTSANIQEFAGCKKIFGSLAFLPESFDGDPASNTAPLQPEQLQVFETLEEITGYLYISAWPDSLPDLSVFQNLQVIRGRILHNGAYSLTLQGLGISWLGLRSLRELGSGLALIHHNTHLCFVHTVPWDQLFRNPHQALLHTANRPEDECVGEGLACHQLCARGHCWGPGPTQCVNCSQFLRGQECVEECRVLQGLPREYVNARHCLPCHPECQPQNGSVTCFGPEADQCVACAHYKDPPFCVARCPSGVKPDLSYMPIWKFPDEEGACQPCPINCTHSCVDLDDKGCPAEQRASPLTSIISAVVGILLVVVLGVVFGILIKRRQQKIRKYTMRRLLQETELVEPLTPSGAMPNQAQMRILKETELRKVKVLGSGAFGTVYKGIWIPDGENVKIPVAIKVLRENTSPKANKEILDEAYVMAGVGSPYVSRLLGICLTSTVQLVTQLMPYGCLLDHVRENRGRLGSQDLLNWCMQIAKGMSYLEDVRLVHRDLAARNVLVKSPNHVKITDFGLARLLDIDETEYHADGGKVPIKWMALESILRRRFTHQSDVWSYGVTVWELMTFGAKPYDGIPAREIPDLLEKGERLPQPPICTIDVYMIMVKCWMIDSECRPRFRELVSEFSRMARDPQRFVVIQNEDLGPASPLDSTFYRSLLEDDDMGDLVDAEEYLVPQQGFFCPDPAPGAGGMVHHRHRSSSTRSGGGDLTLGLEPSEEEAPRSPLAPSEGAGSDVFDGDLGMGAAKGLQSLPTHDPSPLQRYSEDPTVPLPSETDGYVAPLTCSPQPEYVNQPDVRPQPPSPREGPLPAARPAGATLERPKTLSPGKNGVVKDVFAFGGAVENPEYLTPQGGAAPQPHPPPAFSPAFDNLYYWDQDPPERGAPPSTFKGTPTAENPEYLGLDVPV

## CS(=O)(=O)CCNCc1ccc(-c2ccc3ncnc(Nc4ccc(OCc5cccc(F)c5)c(Cl)c4)c3c2)o1 [GW572016, N-{3-Chloro-4-[(3-fluorobenzyl)oxy]phenyl}-6-[5-({[2-(methylsulfonyl)ethyl]amino}methyl)-2-furyl]-4-quinazolinamine]
[1]
  p-AKT: inhibited p-AKT in HN5 cells, the effect was smaller than in erbB2-overexpressing tumor cells
[2]; BT474, 1 μM, 24 h serum-free, EGF 50 ng/ml
  EGF stimulation of p-Erk1/2: inhibited
[2]; BT474, 72 h, GW572016 0.5 or 1 μM, Herceptin 10 μg/ml
  total Erk1/2 steady state protein levels: Neither Herceptin™ nor GW572016 reduced
[2]; 500 nM
  p-Erk1/2: inhibited
[2]; 1 μM
  p-Erk1/2: inhibited
[3]
  TGFa: 22 OD
[4]; 0.5-5 μM
  total steady state Erk protein: remained unchanged
[4]; Homo sapiens, 500 nM, vs vehicle, read-out: inhibition of activated, phosphorylated Erk1/2 (p-Erk)
  inhibition at 0.5 µM: > 50%
[4]; Homo sapiens, 2.5 μM, vs vehicle, read-out: inhibition of activated, phosphorylated Erk1/2 (p-Erk)
  inhibition at 2.5 µM: > 50%
[4]; Homo sapiens, 5 μM, vs vehicle, read-out: inhibition of activated, phosphorylated Erk1/2 (p-Erk)
  inhibition at 5 µM: 100%
[5]; patient 361, breast, 1200 mg/d, day 21 (day 0: 36)
  p-AKT OD: 24 OD
[5]; patient 362, adenocarcinoma unknown primary, 900 mg/d, day 21 (day 0: 61)
  p-AKT OD: 81 OD
[5]; patient 363, sarcoma, 500 mg/d, day 21 (day 0: 19)
  p-AKT OD: 32 OD
[5]; patient 364, 1600 mg/day, Day 21
  reduction of p-AKT: 16%
[5]; patient 364, head & neck, 1600 mg/d, day 21 (day 0: 51)
  p-AKT OD: 43 OD
[5]; patient 366, ovarian, 900 mg/d, day 21 (day 0: 22), aberrant staining, not considered valid
  p-AKT OD: 47 OD
[5]; patient 367, adenocarcinoma unknown primary, 650 mg/d, day 21 (day 0: 35)
  p-AKT OD: 25 OD
[5]; patient 369, head & neck, 1200 mg/d, day 21 (day 0: 24)
  p-AKT OD: 7 OD
[5]; patient 371, breast, 900 mg/d, day 21 (day 0: 36)
  p-AKT OD: 33 OD
[5]; patient 372, breast, 1200 mg/d, day 21 (day 0: 48)
  p-AKT OD: 30 OD
[5]; patient 425, inflammatory breast cancer, 1200 mg/d ditosylate salt, day 21 (day 0: 85)
  pAKT: 26 OD
[5]; patient 425, post-treatment tumor sample, IHC, results not shown
  intensity of pAkt staining, particularly in the nuclei: greatly reduced
[6]
  baseline amount of p-Erk: reduced; also recorded: decreased
[7]; 100 mg/kg
  total Erk1/2 steady state protein levels: without effects
[7]; 100 mg/kg oral twice daily, five doses
  p-Erk1/2: inhibited; also recorded: decreased
[8]; patient 361, 1200 mg/day
  total erbB2 protein: no effect
[8]; patient 425, inflammatory breast cancer, 1200 mg/d ditosylate salt, day 21 (day 0: 62)
  ErbB2: 68 OD
[9]
  baseline phosphorylation of AKT: inhibits
